Data set [1] deals with Glucose-6-phosphate 1-dehydrogenase (Homo sapiens, UniProt P11413). The experiment in a line: human G6PD enzyme inhibitors, dose response, selectivity assay for P. falciparum G6PD inhibitor project, biochemical, fluorescence (AID 504792). In kind it is functional.
Another data set concerns the target Beta-galactosidase (Escherichia coli, UniProt Q8VNN2). The experiment in a line: Dose response counterscreen for EBI2 assay utilizing the enzyme, b-galactosidase. In kind it is functional. Background: The purpose of a counterscreen is to sort out artefacts and off-target activity.
The target in a further data set is Cytochrome P450 2C19 (Homo sapiens, UniProt P33261). The experiment in a line: Cytochrome panel assay with activity outcomes. Panel member name: p450-cyp2c19 Compounds with AC50 equal or less than 10 uM are considered active. The class given is functional.
In the next data set the target is Cytochrome P450 3A4 (Homo sapiens, UniProt P08684).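 Further: CYP3A4 tested as one member of a cytochrome P450 panel screen.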
Data set [2] is described as follows: inhibitors of HIV Env-driven cell fusion, dose response, cherry-pick (AID 652057). In kind it is functional, cell-based.
Data set [3] is described as follows: ZM109 Env clade C HIV-1 fusion inhibitors, dose response, HeLa effector, CEM target cells, luciferase, cherry-pick (AID 652058). The class given is functional, cell-based.
A short description of data set [4]: off-target signal loss in HeLa-CEM21 co-culture – HeLa F-luc CTL cells, cherry-picked, counter-screen for HIV-1 Env fusion inhibitor project, dose response (AID 652040).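 Further: potency for signal decrease marking cytotoxic or nonspecific inhibition.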 In kind it is functional, cell-based.
Data set [5] is described as follows: inhibitors of clade B AD8 Env fusion, dose response, cell-based, cherry-pick (AID 652062).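 Further: luciferase signal from cell-cell fusion driven by HIV-1 clade B AD8 Env; potency is for inhibitors of fusion seen as a drop in luminescence.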 In kind it is functional.
A short description of data set [6]: T. cruzi growth inhibition in host cells, dose response, cell-based, plate reader, dry powder, set 2 (AID 652275). The class given is functional.
For data set [7], the target named is 5-hydroxytryptamine receptor 2A (Mus musculus, UniProt P35363). In kind it is functional, cell-based.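 Further: CHO-K1 cells with tagged receptor and beta-arrestin; agonist potency measured as compound-induced activation of the receptor.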
A further data set deals with Mu-type opioid receptor (Homo sapiens, UniProt P35372). In kind it is functional, cell-based.
Data set [8] can be described thus: Luminescence Cell-Based Dose Retest to Confirm Inhibitors of Cancer Stem Cells. [Related pubchem assays (depositor defined):AID2717, AID2721]. The class given is functional. The conditions noted are these: Homo sapiens.
For data set [9], the target named is T1, Low molecular weight phosphotyrosine protein phosphatase (Homo sapiens, UniProt P24666).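 Further: Dose-response confirmation assay measuring inhibition of LMPTP enzyme activity by fluorescence intensity read-out.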
T1 sequence (P24666 whole entry): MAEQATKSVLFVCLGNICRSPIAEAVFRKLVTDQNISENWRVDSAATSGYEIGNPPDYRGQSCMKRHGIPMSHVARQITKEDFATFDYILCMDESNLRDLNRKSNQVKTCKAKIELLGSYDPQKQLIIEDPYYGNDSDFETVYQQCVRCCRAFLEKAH
The class given is functional. The conditions noted are these: read-out: IC50_Mean.

Data set [10] addresses T2, Small ubiquitin-related modifier 1 (Homo sapiens, UniProt P63165). As to the kind of experiment: inhibitors of SUMO1 peptide binding, dose response, biochemical, fluorescence polarization, uHTS hits (AID 624382). In kind it is functional. The conditions noted are these: read-out: IC50_Mean. (Fluorescence polarisation rises when a labelled molecule tumbles more slowly, as on binding a larger partner.)

The next data set has as its target Genome polyprotein (dengue virus type 2, UniProt P29990). The experiment in a line: Dengue-2 NS5 methyltransferase inhibitors, primary screen, biochemical, confirmation dose response (AID 588689). In kind it is functional.
Data set [11] has as its target T2, Small ubiquitin-related modifier 1. The experiment in a line: inhibitors of SUMO1 partner interactions, dose response, biochemical, FRET (AID 624383). The class given is functional. To be noted: read-out: IC50_Mean.
The target of a further data set is Cytochrome P450 2C9 (Homo sapiens, UniProt P11712).
For data set [12], the target named is T3, Rac GTPase-activating protein 1 (Homo sapiens, UniProt Q9H0H5).
T3 sequence (Q9H0H5 whole entry): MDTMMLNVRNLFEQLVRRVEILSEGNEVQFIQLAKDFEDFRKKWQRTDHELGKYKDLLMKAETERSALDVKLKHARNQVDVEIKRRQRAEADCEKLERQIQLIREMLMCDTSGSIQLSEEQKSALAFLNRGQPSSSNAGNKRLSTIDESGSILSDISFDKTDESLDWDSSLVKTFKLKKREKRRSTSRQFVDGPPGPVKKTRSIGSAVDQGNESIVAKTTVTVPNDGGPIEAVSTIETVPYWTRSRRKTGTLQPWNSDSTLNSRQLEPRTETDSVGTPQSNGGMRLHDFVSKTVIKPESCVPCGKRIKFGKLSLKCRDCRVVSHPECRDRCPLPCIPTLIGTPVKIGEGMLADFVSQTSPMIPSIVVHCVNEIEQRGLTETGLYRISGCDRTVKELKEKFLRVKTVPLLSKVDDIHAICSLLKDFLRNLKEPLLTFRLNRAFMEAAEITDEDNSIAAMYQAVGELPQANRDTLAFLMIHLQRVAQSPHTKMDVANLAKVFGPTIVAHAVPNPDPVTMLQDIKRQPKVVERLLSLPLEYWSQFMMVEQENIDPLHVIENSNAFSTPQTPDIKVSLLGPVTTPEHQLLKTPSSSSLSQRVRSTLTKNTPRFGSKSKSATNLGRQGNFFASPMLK
As to the kind of experiment: MgcRacGAP GTPase-activating activity inhibitors, confirmation, biochemical, ADP Hunter fluorescence, primary and confirmatory (AID 624330). In kind it is functional.

The target of data set [13] is T4, Ubiquitin-conjugating enzyme E2 N (Homo sapiens, UniProt P61088).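 Further: Dose-response confirmation in a TR-FRET assay detecting UBC13-driven polyubiquitin chain formation, inhibition measured.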
T4 sequence (P61088 whole entry): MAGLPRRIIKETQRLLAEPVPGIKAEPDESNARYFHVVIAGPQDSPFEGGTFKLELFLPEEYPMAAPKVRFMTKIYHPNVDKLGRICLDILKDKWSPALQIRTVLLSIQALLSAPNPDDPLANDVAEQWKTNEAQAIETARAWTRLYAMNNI
In kind it is functional.

A short description of data set [14]: microbe, parasite or virus in culture. In kind it is functional. The conditions noted are these: Mycobacterium tuberculosis.

Molecules are shown by their SMILES. Calls of active or inactive are those of the source. Bounds are passed on as bounds.

Sequence of Mu-type opioid receptor (P35372 whole entry): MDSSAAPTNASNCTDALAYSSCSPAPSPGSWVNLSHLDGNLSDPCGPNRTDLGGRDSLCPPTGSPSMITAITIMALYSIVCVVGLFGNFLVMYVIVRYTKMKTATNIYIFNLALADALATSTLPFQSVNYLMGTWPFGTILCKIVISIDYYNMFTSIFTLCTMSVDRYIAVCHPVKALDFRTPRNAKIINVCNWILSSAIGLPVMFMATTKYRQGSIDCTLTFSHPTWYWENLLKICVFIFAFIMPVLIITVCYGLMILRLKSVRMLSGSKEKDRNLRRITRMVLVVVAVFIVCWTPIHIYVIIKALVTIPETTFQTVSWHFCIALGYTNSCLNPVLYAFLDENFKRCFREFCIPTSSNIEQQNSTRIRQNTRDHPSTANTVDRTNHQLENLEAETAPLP
Sequence of Beta-galactosidase (Q8VNN2 whole entry): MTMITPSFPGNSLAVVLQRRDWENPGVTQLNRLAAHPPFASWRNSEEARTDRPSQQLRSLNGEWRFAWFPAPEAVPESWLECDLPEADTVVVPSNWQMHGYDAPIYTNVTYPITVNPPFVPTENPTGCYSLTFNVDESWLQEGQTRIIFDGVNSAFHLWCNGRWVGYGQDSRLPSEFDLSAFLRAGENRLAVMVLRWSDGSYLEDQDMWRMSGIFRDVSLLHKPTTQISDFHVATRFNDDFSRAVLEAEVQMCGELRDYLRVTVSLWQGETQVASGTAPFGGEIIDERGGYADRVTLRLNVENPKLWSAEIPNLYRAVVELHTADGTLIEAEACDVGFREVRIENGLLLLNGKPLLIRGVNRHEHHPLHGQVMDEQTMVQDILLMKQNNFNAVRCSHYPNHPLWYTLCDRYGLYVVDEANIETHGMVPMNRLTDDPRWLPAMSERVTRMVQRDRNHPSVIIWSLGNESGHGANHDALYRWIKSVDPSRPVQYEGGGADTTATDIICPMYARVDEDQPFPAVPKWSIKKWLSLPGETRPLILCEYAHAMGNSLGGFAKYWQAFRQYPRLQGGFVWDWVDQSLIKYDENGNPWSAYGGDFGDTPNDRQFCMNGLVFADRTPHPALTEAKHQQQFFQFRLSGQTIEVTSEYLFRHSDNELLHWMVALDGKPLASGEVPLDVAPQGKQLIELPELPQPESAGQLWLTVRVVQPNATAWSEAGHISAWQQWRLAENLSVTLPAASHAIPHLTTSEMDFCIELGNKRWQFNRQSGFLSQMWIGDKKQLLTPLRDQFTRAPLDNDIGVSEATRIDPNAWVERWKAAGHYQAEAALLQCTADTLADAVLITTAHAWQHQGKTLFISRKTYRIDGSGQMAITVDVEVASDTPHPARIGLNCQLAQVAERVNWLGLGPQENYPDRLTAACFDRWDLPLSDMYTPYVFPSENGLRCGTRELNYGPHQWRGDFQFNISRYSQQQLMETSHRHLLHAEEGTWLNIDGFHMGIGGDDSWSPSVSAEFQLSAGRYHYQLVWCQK
Sequence of Glucose-6-phosphate 1-dehydrogenase (P11413 whole entry): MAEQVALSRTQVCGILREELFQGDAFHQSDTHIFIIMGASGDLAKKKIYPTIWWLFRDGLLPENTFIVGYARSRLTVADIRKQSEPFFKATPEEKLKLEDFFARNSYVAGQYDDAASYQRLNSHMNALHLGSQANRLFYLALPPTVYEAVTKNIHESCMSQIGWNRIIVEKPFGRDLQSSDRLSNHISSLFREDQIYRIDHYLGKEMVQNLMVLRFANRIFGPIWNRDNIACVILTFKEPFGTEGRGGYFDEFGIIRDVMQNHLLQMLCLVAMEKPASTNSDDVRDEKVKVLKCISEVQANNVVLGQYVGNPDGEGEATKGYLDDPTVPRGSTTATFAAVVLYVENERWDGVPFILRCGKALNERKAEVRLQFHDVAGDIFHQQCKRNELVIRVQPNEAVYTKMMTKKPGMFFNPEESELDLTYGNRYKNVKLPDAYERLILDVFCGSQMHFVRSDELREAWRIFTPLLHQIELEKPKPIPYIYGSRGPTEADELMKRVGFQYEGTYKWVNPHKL
T2 sequence (P63165 whole entry): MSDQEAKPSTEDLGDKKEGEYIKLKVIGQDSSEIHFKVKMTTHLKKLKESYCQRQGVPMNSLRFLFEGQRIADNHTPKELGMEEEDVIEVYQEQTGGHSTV
Sequence of 5-hydroxytryptamine receptor 2A (P35363 whole entry): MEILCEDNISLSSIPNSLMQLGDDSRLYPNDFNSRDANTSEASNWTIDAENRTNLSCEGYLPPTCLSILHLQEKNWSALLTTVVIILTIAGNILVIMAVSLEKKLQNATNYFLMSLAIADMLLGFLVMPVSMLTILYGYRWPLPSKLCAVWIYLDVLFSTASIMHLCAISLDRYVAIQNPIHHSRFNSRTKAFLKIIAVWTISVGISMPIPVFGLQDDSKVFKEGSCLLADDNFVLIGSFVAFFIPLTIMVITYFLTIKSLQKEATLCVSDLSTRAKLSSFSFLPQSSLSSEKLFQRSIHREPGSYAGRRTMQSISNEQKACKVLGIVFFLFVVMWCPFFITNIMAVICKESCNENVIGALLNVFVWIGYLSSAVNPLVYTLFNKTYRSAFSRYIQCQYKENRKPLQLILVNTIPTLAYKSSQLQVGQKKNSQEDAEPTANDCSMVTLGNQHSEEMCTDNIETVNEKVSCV
Sequence of Cytochrome P450 3A4 (P08684 whole entry, the tested form may be a part): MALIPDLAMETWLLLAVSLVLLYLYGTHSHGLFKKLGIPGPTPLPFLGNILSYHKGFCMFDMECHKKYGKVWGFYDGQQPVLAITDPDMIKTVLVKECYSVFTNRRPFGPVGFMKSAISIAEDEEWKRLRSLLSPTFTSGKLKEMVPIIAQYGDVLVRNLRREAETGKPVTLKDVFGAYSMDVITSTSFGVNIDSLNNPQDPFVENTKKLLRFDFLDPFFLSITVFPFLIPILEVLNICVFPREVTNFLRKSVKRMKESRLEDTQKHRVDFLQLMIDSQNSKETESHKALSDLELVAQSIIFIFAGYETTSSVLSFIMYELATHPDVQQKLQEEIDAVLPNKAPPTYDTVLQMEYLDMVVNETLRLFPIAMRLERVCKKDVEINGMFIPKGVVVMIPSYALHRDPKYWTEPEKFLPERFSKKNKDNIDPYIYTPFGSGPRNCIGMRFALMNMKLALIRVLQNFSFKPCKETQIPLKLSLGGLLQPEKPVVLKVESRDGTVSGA
Sequence of Genome polyprotein (P29990 2492-3391 limits assumed): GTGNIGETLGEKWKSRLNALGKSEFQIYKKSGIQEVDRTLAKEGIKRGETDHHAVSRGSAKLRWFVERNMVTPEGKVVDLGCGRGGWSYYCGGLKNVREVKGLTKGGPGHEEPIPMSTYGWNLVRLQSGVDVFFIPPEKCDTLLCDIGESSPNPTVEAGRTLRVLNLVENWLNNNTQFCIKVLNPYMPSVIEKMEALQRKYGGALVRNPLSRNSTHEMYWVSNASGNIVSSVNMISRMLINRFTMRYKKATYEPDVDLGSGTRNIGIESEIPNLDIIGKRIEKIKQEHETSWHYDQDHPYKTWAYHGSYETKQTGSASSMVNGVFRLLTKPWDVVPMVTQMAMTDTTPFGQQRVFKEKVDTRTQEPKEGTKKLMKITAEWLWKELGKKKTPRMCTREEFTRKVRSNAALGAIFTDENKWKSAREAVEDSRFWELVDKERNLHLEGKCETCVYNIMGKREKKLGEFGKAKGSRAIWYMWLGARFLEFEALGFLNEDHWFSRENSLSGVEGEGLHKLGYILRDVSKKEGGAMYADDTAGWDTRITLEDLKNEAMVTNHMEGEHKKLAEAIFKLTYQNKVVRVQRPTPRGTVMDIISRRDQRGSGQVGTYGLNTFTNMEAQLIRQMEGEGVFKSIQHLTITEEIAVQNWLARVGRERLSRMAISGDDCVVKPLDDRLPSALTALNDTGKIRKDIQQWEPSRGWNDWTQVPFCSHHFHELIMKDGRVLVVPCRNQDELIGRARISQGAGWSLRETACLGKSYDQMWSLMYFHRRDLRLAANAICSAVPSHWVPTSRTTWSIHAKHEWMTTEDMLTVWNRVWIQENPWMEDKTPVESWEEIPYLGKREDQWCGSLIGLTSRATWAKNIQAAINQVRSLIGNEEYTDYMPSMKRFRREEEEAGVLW
Sequence of Cytochrome P450 2C19 (P33261 whole entry): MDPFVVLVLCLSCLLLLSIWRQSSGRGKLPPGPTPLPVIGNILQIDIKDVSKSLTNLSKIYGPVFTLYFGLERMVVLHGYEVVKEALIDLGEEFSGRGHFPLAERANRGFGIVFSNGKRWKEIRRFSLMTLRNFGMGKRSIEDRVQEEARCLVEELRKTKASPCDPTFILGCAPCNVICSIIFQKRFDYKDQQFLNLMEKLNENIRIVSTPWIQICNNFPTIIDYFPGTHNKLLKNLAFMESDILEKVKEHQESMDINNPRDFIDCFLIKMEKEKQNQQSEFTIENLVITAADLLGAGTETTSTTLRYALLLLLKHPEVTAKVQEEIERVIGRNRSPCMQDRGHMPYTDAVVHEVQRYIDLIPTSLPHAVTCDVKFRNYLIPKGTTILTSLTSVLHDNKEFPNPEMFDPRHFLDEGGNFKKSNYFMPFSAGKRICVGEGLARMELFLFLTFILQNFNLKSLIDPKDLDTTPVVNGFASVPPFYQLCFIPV
Sequence of Cytochrome P450 2C9 (P11712 whole entry): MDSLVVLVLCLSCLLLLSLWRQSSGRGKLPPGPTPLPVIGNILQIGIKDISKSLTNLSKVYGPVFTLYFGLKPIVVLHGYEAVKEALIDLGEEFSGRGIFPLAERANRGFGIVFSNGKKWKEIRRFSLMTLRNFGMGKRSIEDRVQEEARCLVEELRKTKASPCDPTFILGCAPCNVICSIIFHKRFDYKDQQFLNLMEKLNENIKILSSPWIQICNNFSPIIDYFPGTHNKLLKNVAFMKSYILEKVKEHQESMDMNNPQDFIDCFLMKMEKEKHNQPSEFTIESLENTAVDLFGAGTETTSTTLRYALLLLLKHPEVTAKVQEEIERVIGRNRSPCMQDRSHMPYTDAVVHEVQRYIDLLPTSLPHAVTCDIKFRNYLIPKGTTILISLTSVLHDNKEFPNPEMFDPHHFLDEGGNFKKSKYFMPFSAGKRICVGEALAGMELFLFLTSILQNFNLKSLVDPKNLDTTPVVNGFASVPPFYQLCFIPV

Take `COc1cccc(C(=O)Nc2nnc(S(=O)(=O)N(C)Cc3ccccc3)s2)c1`: the IC50 in data set [1] is > 80 µM (inactive).

As to `c1ccc(OCCNc2nc(NCC3CC3)nc3cc(-c4ccccc4)sc23)cc1`, the IC50 on Beta-galactosidase is 104 µM (inactive).

`O=C(O)CC(c1cccc2ccccc12)n1cccc1` (stereo unspecified): the AC50 on Cytochrome P450 2C19 is 28.2 µM (inconclusive); on Cytochrome P450 3A4, “inconclusive”.

Take `c1ccc2c(N3CCCCC3)ncnc2c1`: the concentration at half-maximal activity (AC50) in [2] was 31.5 µM (active); in data set [3] it was 5.37 µM (active); in data set [4], 56.2 µM (active); in [5], 53.9 µM (active).

With `CN(C)CC#Cc1cccc(-c2nc(C(=O)NCc3ccc4c(c3)OCO4)cc3c2[C@@H](CCO)N([S+]([O-])C(C)(C)C)C3)c1` (stereo partly specified), in [6], the AC50 is 0.0993 µM (active).

Take `CCOC(=O)N1CCN(C(=O)c2cc3cc(C)ccc3[nH]2)CC1`: the IC50 at Beta-galactosidase is > 80 µM (inactive).

Turning to `O=C(COc1ccc(Cl)cc1)N1CCN(Cc2ccc3c(c2)OCO3)CC1` [FIPEXIDE], the IC50 at Beta-galactosidase was > 80 µM (inactive).

As to `CCC(c1nnnn1-c1c(C)cccc1C)N1CCN(C/C=C/c2ccccc2)CC1` (stereo unspecified), the EC50 in data set [7] is 0.362 µM (active); on Mu-type opioid receptor, 92.6 µM (inactive).

Turning to `Cc1cc(C)c(O)c(-c2[nH]nc3c2C(c2cccc(O)c2)N(Cc2ccco2)C3=O)c1` (stereo unspecified), the EC50 was 8.01 µM (active) in data set [7] and 92.5 µM (inactive) on Mu-type opioid receptor. For the same compound, the concentration at half-maximal activity (AC50) in data set [8] was 5.49 µM (active).

As for `CC(=Cc1ccccc1)C=C1SC(=S)N(CCCC(=O)Nc2ccc(C(=O)O)cc2)C1=O`, in data set [9], the IC50 is 80 µM (inactive).

With `CCN(CC)S(=O)(=O)c1cc(NC(=O)C(=O)c2c(-c3ccccc3)cc3ccccn23)ccc1C`, the AC50 was 10.6 µM (active) in data set [2], 24.9 µM (active) in data set [3], 9.48 µM (active) in data set [4] and 17.1 µM (active) in data set [5].

On to `O=C(O)c1cccc(-n2cccc2/C=C/[N+](=O)[O-])c1`, for which the IC50 in data set [10] was > 66.6 µM (inactive); at Genome polyprotein, 53.6 µM (active); in [11], 26.5 µM (inactive).

On to `C#CCCc1cscc1/C=[N+](\[O-])c1ccc(C(=O)OCC)cc1`, for which the IC50 in data set [1] is 29.7 µM (inactive).

Regarding `CC(=O)N1CCc2cc(C(=O)CN3CCN(c4ccccn4)CC3)ccc21`, the concentration for a half-maximal effect (EC50) in data set [7] is 0.257 µM (active); on Mu-type opioid receptor it was 92.5 µM (inactive).

As for `CCc1ccccc1N1CSC2=C(C#N)C(c3ccccc3F)CC(=O)N2C1` (stereo unspecified), the IC50 in data set [1] was > 80 µM (inactive).

Regarding `CCOC(=O)c1c(C)nc2sc3c(=O)n(-c4ccc(C(C)=O)cc4)nnc3c2c1-c1ccc(Cl)cc1`, the half-maximal activity concentration (AC50) on Cytochrome P450 2C9 is 2.82 µM (inconclusive); on Cytochrome P450 3A4 it was “inconclusive”.

Regarding `C=C1c2c(Cl)ccc(O)c2C(=O)C2=C(O)[C@]3(O)C(=O)C(C(N)=O)=C(O)[C@@H](N(C)C)[C@@H]3[C@@H](O)[C@H]12.O=C(O)c1cc(S(=O)(=O)O)ccc1O` [MECLOCYCLINE SULFOSALICYLATE], the IC50 is 63 µM (active) in [12], > 20 µM (inactive) in data set [13], 8.79 µM (active) in data set [10] and 39.7 µM (inactive) in data set [11]. Besides, the CC50 in data set [14] was 16.4 µM (active).

For the compound `CC(C)N1CCOC(c2ccc(O)c(O)c2)C1` (stereo unspecified), the half-maximal effective concentration (EC50) in data set [7] was 1.68 µM (active); at Mu-type opioid receptor, 92.3 µM (inactive).

As for `O=C(CN(Cc1ccccc1)S(=O)(=O)c1ccc(F)cc1)NCCC1=CCCCC1`, the AC50 in data set [2] is 2.55 µM (active); in data set [3], 6.77 µM (active); in data set [4], 17.1 µM (active); in data set [5] it was 38 µM (active).

The term AC50 denotes the concentration giving half of the maximal activity seen. Broadly, the EC50 is the concentration giving half of the maximal effect.

The record behind these values is ChEMBL document CHEMBL1201862, “PubChem BioAssay data set” (2004).
